# Experimental data from article PMC5036617 (Toxicological Sciences, 2016).
# Where two headings read alike, the source gives them in different places.
# Columns and labels:
# [1] = cited from earlier work
# HepG2 cells [2] = assay: Cellular ATP content of HepG2 cells in glucose or galactose medium (ATP bioluminescent assay); assay type: cell-based; conditions: 2 h; for EC50ATPglu/EC50ATPgal: ratio ≥ 2 identifies a mitochondrial liability; for EC50: Homo sapiens, concentration reducing cellular ATP content by 50%
# Protocol: Metabolic switching of cells was performed based on work previously described by ([[…] et al., 2015]). Briefly, 24 h prior to metabolic switch, HepG2 cells were collected by trypsinization and seeded on a collagen-coated flat-bottomed 96-well plate (20 000 cells/50 μl/well) and incubated (37°C, 5% CO2) overnight. […] Flutamide, 2-hydroxyflutamide and bicalutamide stock solutions were prepared in DMSO and diluted further in the appropriate medium. Compounds (50 μl) were then added to each well and cells were incubated for 2 h (37 °C, 5% CO2). All assays used ≤ 0.5% DMSO as a vehicle control. […] LDH content of the cells and supernatant was assessed using a cytotoxicity detection kit according to the manufacturer's instructions. ATP content was assessed using an ATP bioluminescent assay according to the manufacturer's instructions. Briefly, 10 μl of cell lysate or ATP standard curve solutions were added to a white-walled 96-well plate before addition of 40 μl ATP assay mix. Protein content of all wells was then assessed using a BCA assay applied to 10 μl of cell lysate and standards. LDH (490 nm), BCA (570 nm), and ATP assay luminescence were then measured using a plate reader (Varioskan, Thermo Scientific). ATP content readings were normalized to protein content. Experiments were conducted in a minimum of triplicate to ensure the reliability of single values. EC50 data were determined by nonlinear regression analysis using GraphPad Prism 5.0. Normality was assessed using a Shapiro-Wilk statistical test. Statistical significance was determined by an unpaired t-test for parametric data and a Mann-Whitney U test for non-parametric data using StatsDirect 2.7.9. P < .05 was taken as showing a significant difference.
# HepG2 cells [3] = assay: Mitochondrial stress test, OCR analysis (Seahorse XFe96); assay type: cell-based; conditions: vs vehicle control
# Protocol: HepG2 cells were collected by trypsinization and seeded on a collagen-coated XF 96-well cell culture microplate (25 000 cells/100 µl medium/well) and incubated overnight in glucose medium (37 °C, 5% CO2). All assays used ≤ 0.5% DMSO as a vehicle control. Cells were incubated for 1 h (37°C, 0% CO2) before culture medium was replaced by 175 µl of unbuffered Seahorse XF Base medium supplemented with glucose (25 mM), L-glutamine (2 mM), sodium pyruvate (1 mM), pre-warmed to 37 °C (pH 7.4). Prior to measurement of OCR, the Seahorse XFe96 instrument gently mixed the assay medium in each well for 10 min to enable the oxygen partial pressure to reach equilibrium. […] There were 9 OCR measurement cycles following compound injection and each measurement cycle consisted of a 3 min mix and 3 min measure. […] After stress test compound injections there were 3 measurement cycles before the injection of the next stress test compound. This enabled the calculation of basal respiration (OCR prior to oligomycin injection—non-mitochondrial OCR), proton leak (OCR after oligomycin injection—non-mitochondrial OCR), ATP-linked OCR (basal respiration—proton leak—non-mitochondrial OCR), maximal respiration (first injection after FCCP injection—non-mitochondrial OCR) and spare respiratory capacity (maximal respiration—basal respiration) (Figure 2).  FIG. 2 Representative control mitochondrial stress test trace. Mitochondrial stress test assays consisted of a series of compound injections into the cell culture microplate. […] Remaining injections consisted of oligomycin (ATP synthase inhibitor), FCCP (OXPHOS uncoupler), and rotenone/antimycin A (complex I and III inhibitors, respectively) with each followed by 3 measurement cycles. This series of manipulations enabled the calculation of parameters: basal, ATP-linked, maximum, and non-mitochondrial OCR, as well as proton leak. Each measurement cycle was a total of 6 min. Following completion of OCR assays, medium was removed from all wells and 20 µl of somatic cell ATP releasing agent was added to each well before shaking for 1 min and transfer of 10 µl of lysate to a 96-well plate and performance of a BCA assay according to the manufacturer’s instructions. Protein content per well was used to normalize OCR.
smiles,measurement,setting,value
Nc1ccc([N+](=O)[O-])c(C(F)(F)F)c1 [3-trifluoromethyl-4-nitroaniline],Cmax,"[1]; plasma, metabolite after single 250 mg dose of flutamide, ref Schulz et al., 1988, read-out: maximum plasma concentration (Cmax)",1310 nM
C[C@](O)(CS(=O)(=O)c1ccc(F)cc1)C(=O)Nc1ccc(C#N)c(C(F)(F)F)c1 [(R)-bicalutamide],half-life,"[1]; single 50 mg dose, ref Cockshott, 2004",140 h
same,Cmax,"[1]; single 50 mg dose, ref Cockshott, 2004, read-out: Cmax",1700 nM
CC(O)(CS(=O)(=O)c1ccc(F)cc1)C(=O)Nc1ccc(C#N)c(C(F)(F)F)c1 (stereo not shown) [Bicalutamide],EC50ATPglu/EC50ATPgal,HepG2 cells [2],1.44 (0.22)
same,EC50ATPglu/EC50ATPgal,HepG2 cells [2]; listed as bicalutamide,≤ 2
same,decrease in ATP content in galactose medium compared with glucose medium,HepG2 cells [2]; up to 300 µM,this was not the case for bicalutamide
same,EC50,"HepG2 cells [2]; galactose medium, read-out: EC50ATP (μM) Galactose",103 µM
same,EC50,"HepG2 cells [2]; glucose medium, read-out: EC50ATP (μM) Glucose",148 µM
same,basal respiration,"HepG2 cells [3]; glucose medium, 7.8–500 µM",only caused a significant decrease in maximal respiration
same,maximal respiration,"HepG2 cells [3]; glucose medium, 7.8–500 µM",significant decrease
same,ATP-linked OCR as a percentage of maximal respiration,HepG2 cells [3]; up to 500 µM,not observed
same,proton leak as a percentage of maximal respiration,HepG2 cells [3]; up to 500 µM,not observed
same,spare respiratory capacity as a percentage of maximal respiration,HepG2 cells [3]; up to 500 µM,not observed
